This note sets out measurements from US10646494B2, “Heterocycle-substituted tetracyclic compounds and methods of use thereof for the treatment of viral diseases” (Merck Sharp & Dohme Corp., priority 2016, dated 2020).

SMILES strings stand for the structures. Read-outs that look alike come from different tables or passages of the source.

Holding throughout (design): species or system Hepatitis C virus (HCV)
Test [1] deals with HCV replicon 2B. As to the kind of experiment: Cell-based HCV replicon assay (Replicon Assay A), replicon 2B. The note with it: read-out: Replicon EC50 (nM) 2B, replicon 2B, replicon RNA by real time PCR, cells harvested on day 3. As for the experimental part:
(§1) To measure cell-based anti-HCV activity of compounds of the present invention, two complimentary assays were employed using various replicons. In the first assay (“Replicon Assay A”), replicon cells were seeded at 2000 cells/well in 384-well 384-well flat bottom tissue culture treated clear bottom plate (Corning 3707) in the presence of the test compound. Various concentrations of test compound, typically in 10 serial dilutions, were added to the assay mixture, with the starting concentration ranging from 333.3 nM to […]. The final concentration of DMSO was 0.5%. Fetal bovine serum was 5%, in the assay media. Cells were harvested on day 3 by removing media and washing the cells with a suitable wash buffer. The cells are lysed with the addition of 1× Qiagen lysis buffer (Cat #1062731). The replicon RNA level was measured using real time PCR (TaqMan® EZ RT-PCR, Applied Biosystems 403028) with the following primers and probes: […]
(§2) Cyclophilin RNA was used as endogenous control and was amplified in the same reaction as NS5B (multiplex PCR). The real-time RT-PCR reactions were run on ABI PRISM 7900HT Sequence Detection System using the following program: 50° C. for 2 minutes, 60° C. for 30 minutes, 95° C. for 5 minutes, 40 cycles of 94° C. for 20 sec, 55° C. for 1 minutes.
(§3) The amount of HCV replicon RNA per cell is quantified using a linear regression curve for a known nanogram (ng) amount of HCV replicon total RNA. This is established by plotting the Cycle Threshold values (Ct) from the Neo probe and primer set versus the log (ng) for each HCV replicon total RNA standard. The amount of HCV RNA for each replicon sample is calculated by taking the sample's Ct value, minus the line intercept, divided by the slope of the line. Similarly, the amount of Cyclophilin mRNA per cell is also quantified using a linear regression curve for a known nanogram (ng) amount of HCV replicon total RNA. Again, this is established by plotting the Cycle Threshold values (Ct) from the Cyclophilin probe and primer set versus the log (ng) for each HCV replicon total RNA standard.
(§4) Data was obtained for various compounds of the present invention using the methods described in the Example above, and is presented in the table immediately below. Data for replicons 1A, 1AY93H and 2B were obtained using Replicon Assay A and data for replicons 1B were obtained using Replicon Assay B.
On the technique in general: Replicon systems follow genome replication, usually without infectious particles.

For test [2], the system named is HCV replicon 1B. The test is described as follows: Cell-based HCV replicon assay (Replicon Assay B), replicon 1B. The note with it: replicon RNA by real-time PCR, incubated for 3 days. As for the experimental part: In an alternate assay (“Replicon Assay B”), 1000 cells were seeded per well in a 384-well collagen coated black plate from Greiner bio-one (Cat #781946) in 5% FBS. Inhibitors of this invention were added at 24 h post-seeding, and the plates were incubated for 3 days. Cells were subsequently lysed with Qiagen lysis buffer (Cat #1062731) to extract the RNA. HCV replicon RNA level was measured by real-time PCR using the RNA-to-CT kit from Applied Biosystem (Cat #4392656) and genotype-specific primers and probes. The amplicon was located within NSSB. The sequence of the PCR primers are as follows: 5B.2F, ATGGACAGGCGCCCTGA (SEQ. ID NO. 1); 5B.2R, […] (SEQ. ID NO. 2); the probe sequence was FAM-labeled CACGCCATGCGCTGCGG (SEQ. ID NO. 3). To detect genotype 1A the primer 1A F, TGCGGAACCGGTGAGTACA and 1A R, […] were used; the probe sequence was FAM-[…].
The real-time RT-PCR reactions were run on ABI PRISM 7900HT or Viia7 Sequence Detection System using the following program: 48° C. for 30 minutes, 95° C. for 10 minutes, 40 cycles of 95° C. for 15 sec, 60° C. for 1 minutes. The 50% effective concentration (EC50) was the drug concentration necessary to achieve an increase in the cycle threshold (CT) of 1 over the projected baseline CT.
as §4

Test [3] deals with HCV replicon 1A. As to the kind of experiment: Cell-based HCV replicon assay (Replicon Assay A), replicon 1A. The note with it: replicon RNA by real time PCR, cells harvested on day 3. As to the method:
as §1, §2, §3, §4

The subject of test [4] is HCV replicon 1A Y93H. The test is described as follows: Cell-based HCV replicon assay (Replicon Assay A), replicon 1AY93H. As to conditions: read-out: Replicon EC50 (nM) 1A Y93H, replicon 1A Y93H, replicon RNA by real time PCR, cells harvested on day 3. As to the method:
as §1, §2, §3, §4

What is called EC50 is the concentration needed to bring the measured effect to its halfway point.

On to `COC(=O)N[C@H](C(=O)N1CCC[C@H]1c1ncc(-c2cc(F)c3c(c2)OC(c2csnn2)n2c-3cc3cc(-c4cnc([C@@H]5CCCN5C(=O)[C@@H](NC(=O)OC)C(C)C)[nH]4)ccc32)[nH]1)C(C)C` (mixture of isomers) [Compound 37], for which the EC50 in test [1] (Hepatitis C virus, 72 h) came to 1.32 nM; in test [2] (Hepatitis C virus, 72 h) it was 0.0036 nM; in test [3] (Hepatitis C virus, 72 h) it was 0.004 nM; in test [4] (Hepatitis C virus, 72 h) it was 0.857 nM.
On to `COC(=O)N[C@H](C(=O)N1CCC[C@H]1c1ncc(-c2cc(F)c3c(c2)OC(c2coc(C4CC4)n2)n2c-3cc3cc(-c4cnc([C@@H]5CCCN5C(=O)[C@@H](NC(=O)OC)C(C)C)[nH]4)ccc32)[nH]1)C(C)C` (single isomer, unassigned) [Compound 35], for which the EC50 stood at 0.003 nM in test [2] (Hepatitis C virus, 72 h) and 0.0034 nM in test [3] (Hepatitis C virus, 72 h).
Turning to `COC(=O)N[C@H](C(=O)N1CCC[C@H]1c1ncc(-c2cc(F)c3c(c2)OC(c2cc(C(C)C)no2)n2c-3cc3cc(-c4cnc([C@@H]5CCCN5C(=O)[C@@H](NC(=O)OC)C(C)C)[nH]4)ccc32)[nH]1)C(C)C` (mixture of isomers) [Compound 6], the EC50 is 0.36 nM in test [1] (Hepatitis C virus, 72 h); 0.0018 nM in test [2] (Hepatitis C virus, 72 h); 0.0017 nM in test [3] (Hepatitis C virus, 72 h); 0.088 nM in test [4] (Hepatitis C virus, 72 h).
Turning to `CCc1nnc(C2Oc3cc(-c4cnc([C@@H]5CCCN5C(=O)[C@@H](NC(=O)OC)C(C)C)[nH]4)cc(F)c3-c3cc4cc(-c5cnc([C@@H]6CCCN6C(=O)C(NC(=O)OC)C(C)C)[nH]5)ccc4n32)s1` (single isomer, unassigned) [Compound 33], the EC50 in test [2] (Hepatitis C virus, 72 h) amounted to 0.0026 nM; in test [3], 0.0028 nM.
With `COC(=O)N[C@H](C(=O)N1CCC[C@H]1c1ncc(-c2cc(F)c3c(c2)OC(c2cc(C4CC4)no2)n2c-3cc3cc(-c4cnc([C@@H]5CCCN5C(=O)[C@@H](NC(=O)OC)C(C)C)[nH]4)ccc32)[nH]1)C(C)C` (single isomer, unassigned) [Compound 30], the EC50 in test [1] was 0.06 nM; in test [2] (Hepatitis C virus, 72 h), 0.0017 nM; in test [3] (Hepatitis C virus, 72 h) it was 0.0012 nM; in test [4], 0.026 nM.
`CCc1cc([C@@H]2Oc3cc(-c4cnc([C@@H]5CCCN5C(=O)[C@@H](NC(=O)OC)C(C)C)[nH]4)cc(F)c3-c3cc4cc(-c5cnc([C@@H]6CCCN6C(=O)[C@@H](NC(=O)OC)C(C)C)[nH]5)ccc4n32)on1` (single isomer, unassigned) [Compound 8]: the EC50 in test [1] is 1.23 nM; in test [3] (Hepatitis C virus, 72 h) it was 0.004 nM; in test [4], 0.603 nM.
With `COC(=O)N[C@H](C(=O)N1CCC[C@H]1c1ncc(-c2cc(F)c3c(c2)OC(c2cc4ccccn4n2)n2c-3cc3cc(-c4cnc([C@@H]5CCCN5C(=O)[C@@H](NC(=O)OC)C(C)C)[nH]4)ccc32)[nH]1)C(C)C` (single isomer, unassigned) [Compound 39], the concentration for a half-maximal effect (EC50) came out at 0.33 nM in test [1], 0.0068 nM in test [3] and 1.66 nM in test [4].
For the compound `COC(=O)N[C@H](C(=O)N1CCC[C@H]1c1ncc(-c2cc(F)c3c(c2)OC(c2cn4ccccc4n2)n2c-3cc3cc(-c4cnc([C@@H]5CCCN5C(=O)[C@@H](NC(=O)OC)C(C)C)[nH]4)ccc32)[nH]1)C(C)C` (some centres unmarked) [Compound 14], the 50% effective concentration (EC50) in test [2] (Hepatitis C virus, 72 h) was found to be 0.0078 nM; in test [3] (Hepatitis C virus, 72 h), 0.0057 nM.
In the case of `COC(=O)N[C@H](C(=O)N1CCC[C@H]1c1ncc(-c2cc(F)c3c(c2)OC(c2nc(C)co2)n2c-3cc3cc(-c4cnc([C@@H]5CCCN5C(=O)[C@@H](NC(=O)OC)C(C)C)[nH]4)ccc32)[nH]1)C(C)C` (single isomer, unassigned) [Compound 24], the EC50 in test [1] worked out at 2.62 nM; in test [3], 0.0021 nM; in test [4] it was 0.266 nM.
`COC(=O)N[C@H](C(=O)N1CCC[C@H]1c1ncc(-c2cc(F)c3c(c2)OC(c2nc(C)co2)n2c-3cc3cc(-c4cnc([C@@H]5CCCN5C(=O)[C@@H](NC(=O)OC)C(C)C)[nH]4)ccc32)[nH]1)C(C)C` (single isomer, unassigned) [Compound 23]: the 50% effective concentration (EC50) in test [1] stood at 6.16 nM; in test [3] (Hepatitis C virus, 72 h), 0.0031 nM; in test [4], 12.7 nM.
Turning to `COC(=O)N[C@H](C(=O)N1CCC[C@H]1c1ncc(-c2cc(F)c3c(c2)OC(c2cnns2)n2c-3cc3cc(-c4cnc([C@@H]5CCCN5C(=O)[C@@H](NC(=O)OC)C(C)C)[nH]4)ccc32)[nH]1)C(C)C` (single isomer, unassigned) [Compound 22], the half-maximal effective concentration (EC50) in test [1] worked out at 0.14 nM; in test [2] (Hepatitis C virus, 72 h), 0.0024 nM; in test [3] (Hepatitis C virus, 72 h) it was 0.0015 nM; in test [4], 0.048 nM.
As to `COC(=O)N[C@H](C(=O)N1CCC[C@H]1c1ncc(-c2cc(F)c3c(c2)OC(c2nc4ccccc4o2)n2c-3cc3cc(-c4cnc([C@@H]5CCCN5C(=O)[C@@H](NC(=O)OC)C(C)C)[nH]4)ccc32)[nH]1)C(C)C` (single isomer, unassigned) [Compound 19], the EC50 in test [1] was 2.67 nM; in test [3] (Hepatitis C virus, 72 h), 0.0016 nM; in test [4], 4.36 nM.
For `COC(=O)N[C@H](C(=O)N1CCC[C@H]1c1ncc(-c2cc(F)c3c(c2)OC(c2coc(C4CC4)n2)n2c-3cc3cc(-c4cnc([C@@H]5CCCN5C(=O)[C@@H](NC(=O)OC)C(C)C)[nH]4)ccc32)[nH]1)C(C)C` (single isomer, unassigned) [Compound 36], the EC50 in test [1] (Hepatitis C virus, 72 h) turned out to be 0.11 nM; in test [2], 0.0029 nM; in test [3], 0.0023 nM; in test [4] (Hepatitis C virus, 72 h), 0.102 nM.
`CCc1cnc(C2Oc3cc(-c4cnc([C@@H]5CCCN5C(=O)[C@@H](NC(=O)OC)C(C)C)[nH]4)cc(F)c3-c3cc4cc(-c5cnc([C@@H]6CCCN6C(=O)[C@@H](NC(=O)OC)C(C)C)[nH]5)ccc4n32)o1` (single isomer, unassigned) [Compound 28]: the 50% effective concentration (EC50) came to 2.09 nM in test [1]; 0.0021 nM in test [3]; 0.31 nM in test [4] (Hepatitis C virus, 72 h).
Turning to `COC(=O)N[C@H](C(=O)N1CCC[C@H]1c1ncc(-c2cc(F)c3c(c2)OC(c2cc4ccccn4n2)n2c-3cc3cc(-c4cnc([C@@H]5CCCN5C(=O)[C@@H](NC(=O)OC)C(C)C)[nH]4)ccc32)[nH]1)C(C)C` (single isomer, unassigned) [Compound 41], the concentration for a half-maximal effect (EC50) in test [1] worked out at 0.57 nM; in test [3] it was 0.0019 nM; in test [4], 0.317 nM.
In the case of `COC(=O)N[C@H](C(=O)N1CCC[C@H]1c1ncc(-c2cc(F)c3c(c2)OC(c2nc(C(C)C)ns2)n2c-3cc3cc(-c4cnc([C@@H]5CCCN5C(=O)[C@@H](NC(=O)OC)C(C)C)[nH]4)ccc32)[nH]1)C(C)C` (single isomer, unassigned) [Compound 31], the concentration giving a half-maximal response (EC50) in test [1] (Hepatitis C virus, 72 h) amounted to 1.64 nM; in test [3] (Hepatitis C virus, 72 h), 0.0013 nM; in test [4], 5.65 nM.
In the case of `CCc1cc([C@@H]2Oc3cc(-c4cnc([C@@H]5CCCN5C(=O)[C@@H](NC(=O)OC)C(C)C)[nH]4)cc(F)c3-c3cc4cc(-c5cnc([C@@H]6CCCN6C(=O)[C@@H](NC(=O)OC)C(C)C)[nH]5)ccc4n32)on1` (single isomer, unassigned) [Compound 7], the 50% effective concentration (EC50) is 10.5 nM in test [1], 0.0073 nM in test [3] and 49.7 nM in test [4].
